Measured values as given in patent publication US20160297851A1, “BROAD SPECTRUM […]” (priority 2012, published 2016).
Converted amounts (≈) assume the structure as drawn. “Also recorded” adds a separate entry of the source. Where two headings read alike, the source gives them in different places.

Assays:
Experiment in all cases: microbe, parasite or virus in culture
[1] = test system: wild type S. epidermidis RP62A; assay type: cell-based, Staphylococcus epidermidis; conditions: for MIC: Sensitive strain (SPase without the resistance-conferring Pro)
[2] = test system: spsB(S29P) S. epidermidis RP62A; assay type: cell-based, Staphylococcus epidermidis
[3] = test system: lepB(P84L) E. coli MG1655; assay type: cell-based, Escherichia coli
wild type S. aureus 8325 = assay type: cell-based, Staphylococcus aureus; conditions: for MIC: Resistant strain (wild type)
[4] = test system: wild type P. aeruginosa PAO1; assay type: cell-based, Pseudomonas aeruginosa
[5] = test system: lepB(P84L) P. aeruginosa PAO1; assay type: cell-based, Pseudomonas aeruginosa
wild type E. coli MG1655 = assay type: cell-based, Escherichia coli
[6] = test system: lepB(P29S) S. aureus 8325; assay type: cell-based, Staphylococcus aureus; conditions: for MIC: Sensitive (genetically sensitized) strain
[7] = Staphylococcus epidermidis, read-out: MIC
[8] = Sensitive (genetically sensitized) strain
[9] = Staphylococcus aureus, read-out: MIC
[10] = Pseudomonas aeruginosa, PAO1, Resistant strain (wild type), read-out: MIC
[11] = Pseudomonas aeruginosa, PAO1, Sensitive (genetically sensitized) strain, read-out: MIC
[12] = Escherichia coli, MG1655, Resistant strain (wild type), read-out: MIC
[13] = Table 3, P3 position derivatives, unit not given
[14] = Escherichia coli, MG1655, Sensitive (genetically sensitized) strain, read-out: MIC

SMILES: CCc1ccc(-c2ccc(C(=O)N(C)[C@H](CO)C(=O)N[C@H](C)C(=O)NCC(=O)N(C)[C@@H]3C(=O)N[C@@H](C)C(=O)N[C@H](C(=O)O)Cc4ccc(O)c(c4)-c4cc3ccc4O)cc2)cc1 [Compound 9]
- MIC [1]: 64 µg/mL (≈ 75.2 µM)
- MIC [2, 7]: > 64 µg/mL
- MIC [3, 8]: >64 µg/mL
- MIC (wild type S. aureus 8325; [9]): > 64 µg/mL
- MIC [4, 10]: > 64 µg/mL
- MIC [5, 11]: > 64 µg/mL
- MIC (wild type E. coli MG1655; [12]): > 64 µg/mL
- MIC [6, 9]: > 64 µg/mL

SMILES: CCCCCCCCCCCCCCCC(=O)N(C)[C@H](CO)C(=O)N[C@H](C)C(=O)NCC(=O)N(C)[C@@H]1C(=O)N[C@@H](C(C)C)C(=O)N[C@H](C(=O)O)Cc2ccc(O)c(c2)-c2cc1ccc2O [Compound 34]
- minimal inhibitory concentration (MIC) [1, 13]: 4
- activity in words [3]: maintained activity
- minimal inhibitory concentration (MIC) [3, 13]: 4
- fold loss of activity relative to arylomycin C16 [5]: 4 fold
- minimal inhibitory concentration (MIC) [5, 13]: 16
- minimal inhibitory concentration (MIC) [6, 13]: 32

SMILES: CCCCCCCCCCCCCCCC(=O)N(C)[C@H](CO)C(=O)N[C@H](C)C(=O)NCC(=O)N(C)[C@@H]1C(=O)N[C@@H](CCCCC)C(=O)N[C@H](C(=O)O)Cc2ccc(O)c(c2)-c2cc1ccc2O [Compound 30]
- minimal inhibitory concentration (MIC) [1, 13]: 4
- minimal inhibitory concentration (MIC) [3, 13]: >128
- minimal inhibitory concentration (MIC) [5, 13]: >128
- fold loss of activity relative to arylomycin C16 [6]: 32 fold
- minimal inhibitory concentration (MIC) [6, 13]: 16

SMILES: CCCCCCCCCCCCCCCC(=O)N(C)[C@H](CO)C(=O)N[C@H](C)C(=O)NCC(=O)N(C)[C@@H]1C(=O)NC(CC(F)(F)F)C(=O)N[C@H](C(=O)O)Cc2ccc(O)c(c2)-c2cc1ccc2O (some centres unmarked) [Compound 33]
- fold loss of activity relative to arylomycin C16 [1]: 32 fold
- minimal inhibitory concentration (MIC) [1, 13]: 8
- fold loss of activity relative to arylomycin C16 [3]: 8 fold
- minimal inhibitory concentration (MIC) [3, 13]: 16
- fold loss of activity relative to arylomycin C16 [5]: at least 16 fold
- minimal inhibitory concentration (MIC) [5, 13]: >64
- fold loss of activity relative to arylomycin C16 [6]: at least 16 fold
- minimal inhibitory concentration (MIC) [6, 13]: >64

SMILES: CCCCCCCCCCCCCCCC(=O)N(C)[C@H](CO)C(=O)N[C@H](C)C(=O)NCC(=O)N(C)[C@@H]1C(=O)N[C@@H](CCCC)C(=O)N[C@H](C(=O)O)Cc2ccc(O)c(c2)-c2cc1ccc2O [Compound 29]
- minimal inhibitory concentration (MIC) [1]: 4
- minimal inhibitory concentration (MIC) [3]: >128
- minimal inhibitory concentration (MIC) [5]: >128
- fold loss of activity relative to arylomycin C16 [6]: 32 fold
- minimal inhibitory concentration (MIC) [6]: 16

SMILES: CCCCCCCCCCc1ccc(C(=O)N(C)[C@H](CO)C(=O)N[C@H](C)C(=O)NCC(=O)N(C)[C@@H]2C(=O)N[C@@H](C)C(=O)N[C@H](C(=O)O)Cc3ccc(O)c(c3)-c3cc2ccc3O)cc1 [Compound 15]
- MIC [1, 7]: 1 µg/mL (≈ 1.13 µM)
- MIC [2, 7]: > 64 µg/mL
- MIC [3, 14]: 8 µg/mL
- activity in words (wild type S. aureus 8325): has activity; also recorded: gains activity
- MIC (wild type S. aureus 8325; [9]): > 64 µg/mL
- MIC [4, 10]: > 64 µg/mL
- MIC [5, 11]: 64 µg/mL
- MIC (wild type E. coli MG1655; [12]): > 64 µg/mL
- MIC [6, 9]: 8 µg/mL

SMILES: CCCCCCCCCCCCCCCC(=O)N1CC(O)C[C@@H]1C(=O)N[C@H](C)C(=O)NCC(=O)N(C)[C@@H]1C(=O)N[C@@H](C)C(=O)N[C@H](C(=O)O)Cc2ccc(O)c(c2)-c2cc1ccc2O (some centres unmarked) [Compound 19]
- MIC [1, 7]: 4 µg/mL (≈ 4.48 µM)
- MIC [2, 7]: 8 µg/mL (≈ 8.96 µM)
- MIC [3, 14]: > 64 µg/mL
- MIC (wild type S. aureus 8325; [9]): > 64 µg/mL
- MIC [4, 10]: > 64 µg/mL
- MIC [5, 11]: > 64 µg/mL
- MIC (wild type E. coli MG1655; [12]): > 64 µg/mL
- MIC [6, 9]: 4 µg/mL

SMILES: CCCCCCCCCCCCCCCC(=O)N(C)[C@H](CO)C(=O)N[C@H](C)C(=O)NCC(=O)N(C)[C@@H]1C(=O)N[C@@H](CCC)C(=O)N[C@H](C(=O)O)Cc2ccc(O)c(c2)-c2cc1ccc2O [Compound 28]
- minimal inhibitory concentration (MIC) [1, 13]: 1
- minimal inhibitory concentration (MIC) [3, 13]: 2
- minimal inhibitory concentration (MIC) [5, 13]: 8
- minimal inhibitory concentration (MIC) [6, 13]: 8

SMILES: CCCCCCCCCCCCCCCC(=O)N(C)[C@H](CO)CC(=O)N[C@H](C)C(=O)NCC(=O)N(C)[C@@H]1C(=O)N[C@@H](C)C(=O)N[C@H](C(=O)O)Cc2ccc(O)c(c2)-c2cc1ccc2O [Compound 23]
- MIC [1, 7]: 4 µg/mL (≈ 4.47 µM)
- MIC [2, 7]: 8 µg/mL (≈ 8.94 µM)
- MIC [3, 14]: > 64 µg/mL
- activity in words (wild type S. aureus 8325): gain activity
- MIC (wild type S. aureus 8325; [9]): 64 µg/mL (≈ 71.5 µM)
- MIC [4, 10]: > 64 µg/mL
- MIC [5, 11]: > 64 µg/mL
- MIC (wild type E. coli MG1655; [12]): > 64 µg/mL
- MIC [6, 9]: 16 µg/mL

SMILES: CCCCCCCCCCCCCCCC(=O)N(C)[C@H](CO)C(=O)N[C@H](C)C(=O)NCC(=O)N(C)[C@@H]1C(=O)N[C@@H](CC)C(=O)N[C@H](C(=O)O)Cc2ccc(O)c(c2)-c2cc1ccc2O [Compound 27]
- minimal inhibitory concentration (MIC) [1]: 0.5
- minimal inhibitory concentration (MIC) [3]: 1
- minimal inhibitory concentration (MIC) [5]: 4
- minimal inhibitory concentration (MIC) [6]: 8

SMILES: CCCCCCCCCCCCCCCC(=O)N(C)[C@H](CO)C(=O)N[C@H](C)C(=O)NCC(=O)N(C)[C@@H]1C(=O)NCC(=O)N[C@H](C(=O)O)Cc2ccc(O)c(c2)-c2cc1ccc2O [Compound 26]
- fold loss of activity relative to arylomycin C16 [1]: 32 fold
- minimal inhibitory concentration (MIC) [1]: 8
- fold loss of activity relative to arylomycin C16 [3]: 32 fold
- minimal inhibitory concentration (MIC) [3]: 16
- fold loss of activity relative to arylomycin C16 [5]: > 16 fold
- minimal inhibitory concentration (MIC) [5]: >64
- fold loss of activity relative to arylomycin C16 [6]: > 16 fold
- minimal inhibitory concentration (MIC) [6]: >64

SMILES: CCCCCCCCCCCCCCCC(=O)N(C)[C@H](CO)CCC(=O)N[C@H](C)C(=O)NCC(=O)N(C)[C@@H]1C(=O)N[C@@H](C)C(=O)N[C@H](C(=O)O)Cc2ccc(O)c(c2)-c2cc1ccc2O [Compound 24]
- MIC [1, 7]: 8 µg/mL (≈ 8.8 µM)
- MIC [2, 7]: 16 µg/mL (≈ 17.6 µM)
- MIC [3, 14]: > 64 µg/mL
- MIC (wild type S. aureus 8325; [9]): 16 µg/mL (≈ 17.6 µM)
- MIC [4, 10]: > 64 µg/mL
- MIC [5, 11]: > 64 µg/mL
- MIC (wild type E. coli MG1655; [12]): > 64 µg/mL
- MIC [6, 9]: 4 µg/mL

SMILES: C[C@@H]1NC(=O)[C@@H](N(C)C(=O)CNC(=O)[C@@H](C)NC(=O)[C@@H](CO)N(C)C(=O)c2ccc(-c3ccccc3)cc2)c2ccc(O)c(c2)-c2cc(ccc2O)C[C@@H](C(=O)O)NC1=O [Compound 8]
- activity in words [1]: retains some activity
- MIC [1, 7]: 32 µg/mL (≈ 38.9 µM)
- MIC [2, 7]: > 64 µg/mL
- MIC [3, 14]: > 64 µg/mL
- MIC (wild type S. aureus 8325; [9]): > 64 µg/mL
- MIC [4, 10]: > 64 µg/mL
- MIC [5, 11]: > 64 µg/mL
- MIC (wild type E. coli MG1655; [12]): > 64 µg/mL
- MIC [6, 9]: > 64 µg/mL

SMILES: CCCCCCCCCCCCCCCC(=O)N(C)[C@H](CO)C(=O)N[C@H](C)C(=O)NCC(=O)N(C)[C@@H]1C(=O)N[C@@H](CC(C)C)C(=O)N[C@H](C(=O)O)Cc2ccc(O)c(c2)-c2cc1ccc2O [Compound 35]
- minimal inhibitory concentration (MIC) [1]: 2
- activity in words [3]: maintained activity
- minimal inhibitory concentration (MIC) [3]: 4
- fold loss of activity relative to arylomycin C16 [5]: > 16 fold
- minimal inhibitory concentration (MIC) [5]: >64
- minimal inhibitory concentration (MIC) [6]: 32

SMILES: CCCCCCc1ccc(C(=O)N(C)[C@H](CO)C(=O)N[C@H](C)C(=O)NCC(=O)N(C)[C@@H]2C(=O)N[C@@H](C)C(=O)N[C@H](C(=O)O)Cc3ccc(O)c(c3)-c3cc2ccc3O)cc1 [Compound 13]
- MIC [1, 7]: 1 µg/mL (≈ 1.2 µM)
- MIC [2, 7]: 16 µg/mL (≈ 19.3 µM)
- MIC [3, 14]: 1 µg/mL
- MIC (wild type S. aureus 8325; [9]): 16 µg/mL (≈ 19.3 µM)
- MIC [4, 10]: > 64 µg/mL
- MIC [5, 11]: > 64 µg/mL
- MIC (wild type E. coli MG1655; [12]): > 64 µg/mL
- MIC [6, 9]: 8 µg/mL

SMILES: CCc1ccc(-c2ccc(C(=O)N(C)[C@H](CO)C(=O)N[C@H](C)C(=O)NCC(=O)N(C)[C@@H]3C(=O)N[C@@H](C)C(=O)N[C@H](C(=O)O)Cc4ccc(O)c(c4)-c4cc3ccc4O)cc2)cc1 [Compound 10]
- MIC [1]: 8 µg/mL (≈ 9.4 µM)
- MIC [2]: >64 µg/mL
- MIC [3, 8]: 16 µg/mL
- MIC (wild type S. aureus 8325): >64 µg/mL
- MIC ([4]; Resistant strain (wild type)): >64 µg/mL
- MIC [5, 8]: >64 µg/mL
- MIC (wild type E. coli MG1655; Resistant strain (wild type)): >64 µg/mL
- MIC [6]: 64 µg/mL
